These results are taken from PMC7356390, “Dehydrozingerone, a Curcumin Analog, as a Potential Anti-Prostate Cancer Inhibitor In Vitro and In Vivo” (Molecules, 2020).

Series [1] relates to PLS10 cells. Briefly: Cell cycle analysis (Guava cycle assay). Type of series: cell-based, rat. To be noted: 48 h. The protocol: Cells were treated with Cur (0–20 μM) and DZG (0–200 μM) for 48 h. Cells were harvested for analysis of the cell cycle distribution by the Guava cycle (a,b), while cyclin D1 expression was determined by Western blot analysis (c,d). The level of protein expression was quantified by IMAGE J software. Data are presented as mean ± S.D. of three independent experiments. * p < 0.05 and ** p < 0.01 vs. control (one-way ANOVA, Dunnett’s multiple comparisons test, tested groups vs. control group). TEXT PRINTED IN THE PICTURE: (a) Cur: G1: 39.76±7.07 (Cur (μM): 5); S: 15.20±2.22 (Cur (μM): 5); G2/M: 45.02±8.26 (Cur (μM): 5); G1: 43.45±4.60 (Cur (μM): 10); S: 15.45±1.20 (Cur (μM): 10); G2/M: 40.90±6.08 (Cur (μM): 10); G1: 41.00±2.40 (Cur (μM): 15); S: 16.35±2.05 (Cur (μM): 15); G2/M: 42.60±4.67 (Cur (μM): 15); G1: 46.28±4.32 (Cur (μM): 20); S: 13.68±2.05 (Cur (μM): 20); G2/M: 43.10±5.50 (Cur (μM): 20) | (b) DZG: G1: 36.75±0.35 (DZG (μM): 50); S: 16.30±0.71 (DZG (μM): 50); G2/M: 46.95±0.35 (DZG (μM): 50); G1: 36.73±3.41 (DZG (μM): 100); S: 17.17±1.29 (DZG (μM): 100); G2/M: 46.10±2.78 (DZG (μM): 100); G1: 42.88±7.45 (DZG (μM): 150); S: 17.90±1.82 (DZG (μM): 150); G2/M: 39.25±6.13 (DZG (μM): 150); G1: 52.95±7.52 (DZG (μM): 200); S: 16.23±1.02 (DZG (μM): 200); G2/M: 31.00±6.67 (DZG (μM): 200) DOUBTS OF THE COPYIST ABOUT THIS PICTURE: Control columns (panel a: G1: 38.86±4.93, S: 14.52±1.90, G2/M: 46.60±5.74; panel b: G1: 35.93±2.45, S: 15.90±2.11, G2/M: 48.18±2.51) are printed but left out of lines, as Control is not a substance
The PLS10 cells (1.0 × 10^5 cells per well) were plated into a 6-well plate overnight. Then, cells were treated with increasing concentrations of Cur (0–20 µM) or DZG (0–200 µM) in the present of 0.5% DMSO (vehicle control) for the next 48 h. Cell morphology was investigated and photographed under a microscope. The cell cycle distribution was determined using a Guava cycle assay (Guava Technologies, Hayward, CA, USA) according to the manufacturer’s protocols. Briefly, the cells were removed by trypsinization, and the cell suspension was fixed in ice-cold 70% methanol at −20°C. After that, the methanol was removed, and the cells were washed with PBS before being stained with a Guava cycle reagent for 30 min. Cell cycle distribution was determined on a Guava PCA Instrument using Guava®ViacountTM Software (Merck Ltd., Darmstadt, Germany).

In series [2] the test system is PLS10 cells. More on the design: method as in PMID 30499149. To be noted: read-out: IC50 of Cur on PLS10 cells (previous study); cited from earlier work.
The next series has as its system HT-29 cells. On the set-up: method as in PMID 23245566. To be noted: cited from earlier work.
The conditions of series [3]: intraperitoneal administration of 100 mg/kg; cited from earlier work.

Turning to `COc1cc(/C=C/C(=O)CC(=O)/C=C/c2ccc(O)c(OC)c2)ccc1O` [Cur, Curcumin], in the series with PLS10 cells [1] (Cur 20 µM), the “G1 phase cell population” value worked out at 46%. Besides, the IC50 (as a rule, the concentration at which inhibition is half-maximal) in the series on PLS10 cells [2] was 26.5 ± 1.8 µM.
With `COc1cc(/C=C/C(C)=O)ccc1O` [DZG, (E)-4-(4-hydroxy-3-methoxyphenyl)-but-3-en-2-one], in the series with PLS10 cells [1] (DZG 150 µM), the “G1 phase cell population” value worked out at 43% and the “G2/M phase cell population” value is recorded as 39%. Further, in the series with PLS10 cells [1] (DZG 200 µM), the “G1 phase cell population” value is 53% and the “G2/M phase cell population” value is recorded as 31%. Moreover, the “concentration range that suppressed proliferation of HT-29 cells (G2/M arrest)” value in the series on HT-29 cells was 250 to 500 µM. Besides, in series [3], the “effect on serum aspartate aminotransferase, alanine transaminase, serum creatinine, blood urea and lactate dehydrogenase” value is “no effect”.
